Data set [1] deals with HIV-1 IIIB laboratory strain. As to the kind of experiment: HIV-1 IIIB viral growth, different research group, compared to AZT. Format: cell-based. The following applies: HIV-1 IIIB (first-named isolate).
For data set [2], the system named is HIV-1 D isolate. Briefly: HIV-1 D isolate viral growth, different research group, compared to AZT. Format: cell-based. The following applies: HIV-1 D isolate (second-named isolate).
The subject of data set [3] is Newcastle disease. Format: in vivo, Ross 308 broiler chickens. Particulars: Baytril 10 mg/kg/day for 3 days in first week, one day at 21 days of age; day 28 and 42.
Data set [4] can be described thus: Study 1511: Subchronic oral toxicity in rats (90 day study). The following applies: rat, in vivo.
For data set [5] the following is noted: dog, in vivo. The procedure:
All animals were euthanased after the 90-day period and a comprehensive post mortem examination, as well as a histopathological evaluation of an extensive list of organs, was performed.

The conditions of data set [6]: rat, in vivo.

Read-outs that look alike come from different tables or passages of the source.

As for `Cc1cn([C@H]2C[C@H](N=[N+]=[N-])[C@@H](CO)O2)c(=O)[nH]c1=O` [AZT], the figures for the “AZT concentration giving the same level of viral growth as oxihumate 25 μg/ml” value in data set [1] and in data set [2] were 0.3 µM and 12.5 µM, respectively.

In the case of `CCN1CCN(c2cc3c(cc2F)c(=O)c(C(=O)O)cn3C2CC2)CC1` [Baytril], the “titers against Newcastle disease” value in data set [3] is “two to four fold increase”.

As for Potassium oxihumate, the “end body mass of male treated animals” value in data set [4] is reported as “statistically significant decrease”. In data set [4] (po), the circulating lymphocytes result is “decline”; the clinical signs entry was “No abnormal clinical signs were observed”; the “pathology and organ masses compared to the control animals” value is recorded as “no notable differences”; the serum globulins entry is given as “consistent increase”. In data set [4] (po), the serum inorganic phosphate result was “decrease”; the “size and haemoglobinization of the red blood cells” value was “drug-related increase”. Further, in data set [4] (po, 1000 mg/kg/day), the “blood chemistry and body masses” value was “Slight alterations in blood chemistry and slight decreases in body masses”. Moreover, in data set [5], the overall toxicity assessment result was “low toxicity”; the “post mortem and histopathological evaluation” value was “did not induce any measurable pathology at the macroscopic and microscopic level”. Besides, the “clinical signs of toxicity” value in data set [5] (1200 mg/kg/day) is “did not induce marked clinical signs of toxicity”. The clinical pathological parameters result in data set [5] (po) was “some, but usually small, effects”. The “blood chemistry and body masses” value in data set [5] (po, 1200 mg/kg/day) was “Slight alterations in blood chemistry and slight decrease in body masses”. Also, in data set [6], the acid-base status entry is reported as “very low grade acid-base disturbance” and the chemical pathology parameters entry is recorded as “altered some of the chemical pathology parameters”. Also, in data set [6] (1000 mg/kg/day), the overall toxicity assessment entry is listed as “does not appear to have any serious deleterious effect”; the “pathology, body masses and organ masses compared to the control animals” value is given as “no differences”.

(Values after patent publication US6630179B1 (priority 1998, dated 2003).)
